PubChem BioAssay (NCI)
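Interpolation was linear, between the two tested concentrations surrounding the appropriate level; five concentrations were tested over 48 hours in 96-well plates. Definition used: TGI = concentration required for complete inhibition of growth.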

How the values were obtained:
Test in all cases: DTP human tumour cell line panel, 48 h
HCT-116 colon = system: HCT-116 colon
HCT-15 colon = system: HCT-15 colon
HL-60(TB) leukemia = system: HL-60(TB) leukemia
HOP-62 NSCLC = system: HOP-62 NSCLC
IGROV1 ovarian = system: IGROV1 ovarian
M14 melanoma = system: M14 melanoma
MALME-3M melanoma = system: MALME-3M melanoma
MDA-MB-231 breast = system: MDA-MB-231 breast
NCI-H23 lung = system: NCI-H23 lung
SK-MEL-5 melanoma = system: SK-MEL-5 melanoma
SK-OV-3 ovarian = system: SK-OV-3 ovarian
SNB-75 CNS = system: SNB-75 CNS
T-47D breast = system: T-47D breast
UACC-62 melanoma = system: UACC-62 melanoma

SMILES | TGI (HCT-116 colon) | TGI (HCT-15 colon) | TGI (HL-60(TB) leukemia) | TGI (HOP-62 NSCLC) | TGI (IGROV1 ovarian) | TGI (M14 melanoma) | TGI (MALME-3M melanoma) | TGI (MDA-MB-231 breast) | TGI (NCI-H23 lung) | TGI (SK-MEL-5 melanoma) | TGI (SK-OV-3 ovarian) | TGI (SNB-75 CNS) | TGI (T-47D breast) | TGI (UACC-62 melanoma)
S=C(N/N=C(/c1ccccc1)c1ccccn1)Nc1ccccc1Cl | 3.44 µM | 7.36 µM | 0.228 µM | 16.6 µM | 7.84 µM | 2.89 µM | 12.2 µM | 2.19 µM | 16.7 µM | 2.63 µM | 13 µM | 19.4 µM | 0.857 µM | 14.6 µM
COc1cc(-c2oc3c(OC)c(O)c(OC)c(O)c3c(=O)c2OC)cc(O)c1OC | > 100 µM | > 100 µM | 57.9 µM | > 100 µM | > 100 µM | > 100 µM | 99.4 µM | > 100 µM | 76.8 µM | 55.6 µM | 49.3 µM | 42 µM | > 100 µM | 71.8 µM
Clc1ccc(Oc2ccc(N=Cc3ccc(Cl)cc3Cl)cc2Cl)cc1 | > 100 µM | > 100 µM | 57.6 µM | > 100 µM | > 100 µM | 68 µM | 87.4 µM | > 100 µM | > 100 µM | > 100 µM | > 100 µM | 87.4 µM | > 100 µM | > 100 µM
O=C/C(=C(/Br)I)c1ccccc1 | 4.52 µM | 5.65 µM | 1.13 µM | 29.8 µM | 12.3 µM | 4.01 µM | 5.87 µM | 7.44 µM | 12.7 µM | 13.8 µM | 23.2 µM | 18.7 µM | 3.85 µM | 44.4 µM
Cc1c(CCOC=O)c(=O)[nH]c2nncn12 | > 100 µM | > 100 µM | > 100 µM | > 100 µM | > 100 µM | > 100 µM | > 100 µM | > 100 µM | > 100 µM | > 100 µM | > 100 µM | > 100 µM | > 100 µM | > 100 µM
CC(C)(C)c1ccc(-c2nc3ccc([N+](=O)[O-])cc3c(=O)o2)cc1 | 81.2 µM | 73.4 µM | 65.6 µM | 60.9 µM | > 100 µM | > 100 µM | 75 µM | 66 µM | 78.7 µM | 74.9 µM | 95.7 µM | 66.1 µM | > 100 µM | 79.3 µM
CC(=O)C(=[N+]=[N-])C(=O)OC(C)(C)C#N | > 10 µM | > 10 µM | > 10 µM | > 10 µM | > 10 µM | > 10 µM | > 10 µM | > 10 µM | > 10 µM | > 10 µM | > 10 µM | 8.12 µM | > 10 µM | > 10 µM
CC1(c2nc3cc(Cl)c(Cl)cc3[nH]2)CCC(CO)C(C)(C)O1 (centres undefined) | > 100 µM | > 100 µM | 36.7 µM | > 100 µM | 77.6 µM | 92.5 µM | 84 µM | 77.6 µM | 76.4 µM | 27.1 µM | > 100 µM | 66.9 µM | > 100 µM | 39.2 µM
COc1ccc(/C=C2\C[C@H]3[C@@H]4CCC5=C[C@@H](N6CCCC6)CC[C@]5(C)[C@H]4CC[C@]3(C)[C@H]2O)cc1 | 5.45 µM | 5.77 µM | 4.21 µM | 3.74 µM | 20 µM | 2.9 µM | 5.87 µM | 4.6 µM | 16.3 µM | 2.91 µM | 14.8 µM | 14.5 µM | 14.1 µM | 3.28 µM
CC1(C)C(=O)C(C)(C)C12SSC1(S2)C(C)(C)C(=O)C1(C)C | > 100 µM | > 100 µM | 21.1 µM | > 100 µM | > 100 µM | > 100 µM | > 100 µM | > 100 µM | > 100 µM | > 100 µM | > 100 µM | > 100 µM | > 100 µM | > 100 µM
C[C@]12CC[C@@H]3c4cc(OCC(F)(F)F)c(O)cc4C(=O)C[C@H]3[C@@H]1CC[C@@H]2O | > 100 µM | > 100 µM | 4.68 µM | > 100 µM | > 100 µM | > 41.7 µM | 88.1 µM | > 66.4 µM | > 100 µM | > 82.8 µM | 47.5 µM | 65.7 µM | > 100 µM | > 100 µM
